Assay results published in patent publication US8815775B2 (priority 2010, dated 2014).

assay: log P by HPLC (EEC Directive 79/831 Annex V.A8); type: physicochemical; conditions: HPLC with aqueous formic acid/acetonitrile eluents, pH 2.7; HCOOH; read-out: log P (HCOOH)
Method: The log P values were measured according to EEC Directive 79/831 Annex V.A8 by HPLC (high-performance liquid chromatography).
The LC-MS determination within the acidic range is effected at pH 2.7 with 0.1% aqueous formic acid and acetonitrile (contains 0.1% formic acid) as eluents; linear gradient from 10% acetonitrile to 95% acetonitrile.
The calibration is carried out using unbranched alkan-2-ones (having 3 to 16 carbon atoms) with known log P values (determination of the log P values by the retention times using linear interpolation between two successive alkanones). The lambda-maX values were determined in the maxima of the chromatographic signals using the UV spectra from 200 nm to 400 nm.

Row | Compound | chromatographic logP
1 | CC(C)(C)OC(=O)N1CCC(F)(c2nc(Br)cs2)CC1 [Va-1, tert-Butyl 4-(4-bromo-1,3-thiazol-2-yl)-4-fluoropiperidine-1-carboxylate] | 3.94
2 | CC(C)(C)OC(=O)N1CCC(O)(c2nc(Br)cs2)CC1 [IV-1, tert-Butyl 4-(4-bromo-1,3-thiazol-2-yl)-4-hydroxypiperidine-1-carboxylate] | 2.74

same assay, conditions: HPLC with aqueous formic acid/acetonitrile eluents, pH 2.7; read-out: log P (pH2.7)

Row | Compound | chromatographic logP
3 | O=C(O)c1csc(C2(F)CCN(C(=O)Cn3nc(C(F)F)cc3C(F)F)CC2)n1 [Xa-1, 2-(1-{[3,5-bis(Difluoromethyl)-1H-pyrazol-1-yl]acetyl}-4-fluoropiperidin-4-yl)-1,3-thiazole-4-carboxylic acid] | 1.96
4 | CN(C(=O)c1csc(C2(F)CCN(C(=O)Cn3nc(C(F)F)cc3C(F)F)CC2)n1)C1CCCc2ccccc21 (racemic) [I-a-4, (±)-2-(1-{[3,5-bis(Difluoromethyl)-1H-pyrazol-1-yl]acetyl}-4-fluoropiperidin-4-yl)-N-methyl-N-(1,2,3,4-tetrahydronaphthalen-1-yl)-1,3-thiazole-4-carboxamide] | 3.56
5 | CCOC(=O)c1csc(C2(F)CCN(C(=O)Cn3nc(C(F)F)cc3C(F)F)CC2)n1 [IXa-1, Ethyl 2-(1-{[3,5-bis(difluoromethyl)-1H-pyrazol-1-yl]acetyl}-4-fluoropiperidin-4-yl)-1,3-thiazole-4-carboxylate] | 2.82
6 | CCOC(=O)c1csc(C2(F)CCN(C(=O)OC(C)(C)C)CC2)n1 [VIa-1, tert-Butyl 4-[4-(ethoxycarbonyl)-1,3-thiazol-2-yl]-4-fluoropiperidine-1-carboxylate] | 3.47
7 | CCOC(=O)c1csc(C2(F)CCNCC2)n1 [VII-1, 4-[4-(Ethoxycarbonyl)-1,3-thiazol-2-yl]-4-fluoropiperidinium chloride] | 0.39
